Values quoted from earlier work in patent US20050038005A1, “Method of intermittent administration of a pharmaceutical for the treatment of conditions associated with a female's menstrual cycle” (priority 2003, published 2005).

Tests used:
[1] = calcium supplementation; especially pain and water retention
[2] = magnesium supplementation, oral
[3] = administration of fluoxetine
[4] = intermittent administration for approximately fourteen days prior to the start of menses

[Ca+2] [Calcium]
alleviation of symptoms associated with PMS [1]: effective treatment for alleviating some of the symptoms associated with PMS

[Mg+2] [Magnesium]
relief of symptoms of PMS [2]: relieve some symptoms of PMS, particularly pain and mood fluctuations

CNCCC(Oc1ccc(C(F)(F)F)cc1)c1ccccc1 (stereo not shown) [fluoxetine]
amelioration of symptoms of PMS/PMDD [3]: ameliorate the symptoms of PMS/PMDD | efficacy in treating the symptoms of PMS [4]: efficacious in treating the symptoms of PMS
